Patent publication US20120142584A1, “NOVEL TRANSPORTER CONSTRUCTS AND TRANSPORTER CARGO CONJUGATE MOLECULES” (priority 2008, published 2012)

Experiment: digestion of TAT derived transporter constructs in 10% and 50% human serum at 37° C.
Conditions: 10% and 50% human serum at 37° C. until complete degradation
Description: The table shown in FIG. 2 illustrates the amino acid sequences of these TAT derived transporter constructs with respect to their molecular weight (Mw) and pl-values (see FIG. 2). • The digestion was carried out in 10% and 50% human serum at 37° C. until complete degradation of these TAT derived transporters construct.

For `N=C(N)NCCC[C@H](NC(=O)[C@H](CCCNC(=N)N)NC(=O)[C@H](CCCNC(=N)N)NC(=O)[C@H](CCC(N)=O)NC(=O)[C@H](CCCNC(=N)N)NC(=O)[C@H](CCCNC(=N)N)NC(=O)[C@H](CCCCN)NC(=O)[C@H](CCCCN)NC(=O)[C@@H](N)CCCNC(=N)N)C(=O)O` [L-TAT], the “degradation in human serum” value was “degraded too early”.
